From US4921850A, “3-propenylcephem derivative” (Eisai Co., Ltd., priority 1986, dated 1990)
Converted amounts (≈) assume the structure as drawn. Read-outs that look alike come from different tables or passages of the source.

How the values were obtained:
Kleb. pneumoniae EK-6 = experiment: Anti-bacterial activity (MIC), agar dilution; type: cell-based; details: Klebsiella pneumoniae, EK6, 18 h, Kleb. pneumoniae EK-6; agar dilution, about 10^6 CFU/ml, 18 hours, 37° C.; read-out: MIC
In short: (§1)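 MIC values (μg/ml) come from agar dilution: strains grown overnight in Mueller-Hinton broth, diluted to roughly 10^6 CFU/ml, spotted on Mueller-Hinton agar containing twofold serial antibiotic dilutions, and read after 18 hours at 37° C.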

Pseud. aeruginosa EP-01 = experiment: Anti-bacterial activity (MIC), agar dilution; type: cell-based; details: Pseudomonas aeruginosa, EP01, 18 h
In short: as §1

Escher. coli NIHJ = experiment: Anti-bacterial activity (MIC), agar dilution; type: cell-based; details: Escherichia coli, 18 h
In short: as §1

Staph. aureus 209-P = experiment: Anti-bacterial activity (MIC), agar dilution; type: cell-based; details: Staphylococcus aureus, 209P, 18 h, Staph. aureus 209-P; agar dilution, about 10^6 CFU/ml, 18 hours, 37° C.; read-out: MIC
In short: as §1

Ser. marcescens ES-75 = experiment: Anti-bacterial activity (MIC), agar dilution; type: cell-based; details: Serratia marcescens, ES75, 18 h, Ser. marcescens ES-75; agar dilution, about 10^6 CFU/ml, 18 hours, 37° C.; read-out: MIC
In short: as §1

[1] = system: Morganella morganii EP-14; experiment: Anti-bacterial activity (MIC), agar dilution; type: cell-based; details: Morganella morganii, EP14, 18 h, about 10^6 CFU/ml, 37° C., read-out: MIC
In short: as §1

in vivo = details: read-out: values of acute toxicity
From the text: (1) Acute toxicity in mouse:
The compounds according to this invention dissolved in a physiological saline solution were intravenously dosed to five ICR male 6 weeks-old mouse.

[2] = intravenous, physiological saline solution, five ICR male 6 weeks-old mouse
[3] = Pseud. aeruginosa EP-01, agar dilution, about 10^6 CFU/ml, 18 hours, 37° C., read-out: MIC
[4] = Escher. coli NIHJ, agar dilution, about 10^6 CFU/ml, 18 hours, 37° C., read-out: MIC

Row | SMILES | MIC (Kleb. pneumoniae EK-6) [µg/mL] | MIC (Pseud. aeruginosa EP-01) [µg/mL] | MIC (Escher. coli NIHJ) [µg/mL] | MIC (Staph. aureus 209-P) [µg/mL] | MIC (Ser. marcescens ES-75) [µg/mL] | MIC [1] [µg/mL] | LD50 (in vivo; [2]) [mg/kg] | MIC (Pseud. aeruginosa EP-01; [3]) [µg/mL] | MIC (Escher. coli NIHJ; [4]) [µg/mL] | LD50 (in vivo; mouse, iv) [mg/kg]
1 | NC(=O)C1CC[N+](C/C=C/C2=C(C(=O)[O-])N3C(=O)[C@@H](NC(=O)/C(=N\OCF)c4nsc(N)n4)[C@H]3SC2)(CCO)CC1 (single isomer, unassigned) [Example 2-1, 7β-[2-(5-Amino-1,2,4-thiadiazol-3-yl)-(Z)-2-fluoromethoxyiminoacetamido]-3-[(E)-3-[1-(2-hydroxyethyl)-4-carbamoyl-1-piperidinio]-1-propen-1-yl]-3-cephem-4-carboxylate] | 0.05 (≈ 0.0816 µM) | 1.56 (≈ 2.55 µM) | 0.05 (≈ 0.0816 µM) | 0.4 (≈ 0.653 µM) | 0.05 (≈ 0.0816 µM) | 0.05 (≈ 0.0816 µM) | > 2000 | – | – | –
2 | C[N+]1(C/C=C/C2=C(C(=O)[O-])N3C(=O)[C@@H](NC(=O)/C(=N\OCF)c4nsc(N)n4)[C@H]3SC2)C[C@H](O)C[C@@H]1CO (single isomer, unassigned) [Example 6-1, 7β-[2-(5-Amino-1,2,4-thiadiazol-3-yl)-(Z)-2-fluoromethoxyiminoacetamido]-3-[(E)-3-(4R-hydroxy-2R-hydroxymethyl-1-methyl-1-pyrrolidinio)-1-propen-1-yl]-3-cephem-4-carboxylate] | ≤ 0.025 | – | – | 0.2 (≈ 0.35 µM) | ≤ 0.025 | ≤ 0.025 | – | 0.8 (≈ 1.4 µM) | 0.05 (≈ 0.0875 µM) | > 2000
3 | C[N+]1(C/C=C/C2=C(C(=O)[O-])N3C(=O)[C@@H](NC(=O)/C(=N\OCF)c4nsc(N)n4)[C@H]3SC2)CCNCC1 [Example 124, 7β[2-(5-Amino-1,2,4-thiadiazol-3-yl)-(Z)-2-fluoromethoxyiminoacetamido]-3-[(E)-3-(1-methyl-1-piperazinio)-1-propen-1-yl]-3-cephem-4-carboxylate] | ≤ 0.025 | – | – | 0.2 (≈ 0.37 µM) | 0.1 (≈ 0.185 µM) | 0.05 (≈ 0.0925 µM) | – | 0.8 (≈ 1.48 µM) | 0.05 (≈ 0.0925 µM) | –
4 | Nc1nc(/C(=N/OCF)C(=O)N[C@@H]2C(=O)N3C(C(=O)[O-])=C(/C=C/C[N+]45CCN(CC4)CC5)CS[C@H]23)ns1 [Example 129, 7β-[2-(5-Amino-1,2,4-thiadiazol-3-yl)-(Z)-2-fluoromethoxyiminoacetamido]-3-[(E)-3-(1,4-diazabicyclo[2,2,2]octan-1-io)-1-propen-1-yl]-3-cephem-4-carboxylate] | ≤ 0.025 | – | – | 0.2 (≈ 0.362 µM) | 0.05 (≈ 0.0905 µM) | ≤ 0.025 | – | 0.8 (≈ 1.45 µM) | ≤ 0.025 | –
5 | CC(=O)C[N+](C)(C)C/C=C/C1=C(C(=O)[O-])N2C(=O)[C@@H](NC(=O)/C(=N\OCF)c3nsc(N)n3)[C@H]2SC1 [Example 137, 7β-[2-(5-Amino-1,2,4-thiadiazol-3-yl)-(Z)-2-fluoromethoxyiminoacetamido]-3-[(E)-3-[(2-oxopropyl)dimethylammonio]-1-propen-1-yl]-3-cephem-4-carboxylate] | – | – | – | – | – | – | > 2000 | – | – | –
6 | Nc1nc(/C(=N/OCF)C(=O)N[C@@H]2C(=O)N3C(C(=O)[O-])=C(/C=C/C[N+](CCO)(CCO)CCO)CS[C@H]23)ns1 [Example 143, 7β-[2-(5-Amino-1,2,4-thiadiazol-3-yl)-(Z)-2 fluoromethoxyiminoacetamido]-3-[(E)-3-[tris(2-hydroxyethyl)ammonio]-1-propen-1-yl]-3-cephem-4-carboxylate] | ≤ 0.025 | – | – | 0.2 (≈ 0.339 µM) | 0.1 (≈ 0.17 µM) | ≤ 0.025 | – | 0.8 (≈ 1.36 µM) | 0.05 (≈ 0.0848 µM) | –
7 | C[N+](C/C=C/C1=C(C(=O)[O-])N2C(=O)[C@@H](NC(=O)/C(=N\OCF)c3nsc(N)n3)[C@H]2SC1)(CCO)CCO [Example 144, 7β-[2-(5-Amino-1,2,4-thiadiazol-3-yl)-(Z)-2-fluoromethoxyiminoacetamido]-3-[(E)-3-[bis(2-hydroxyethyl)methylammonio]-1-propen-1-yl]-3-cephem-4-carboxylate] | 0.05 (≈ 0.0893 µM) | – | – | 0.2 (≈ 0.357 µM) | 0.1 (≈ 0.179 µM) | ≤ 0.025 | – | 0.8 (≈ 1.43 µM) | ≤ 0.025 | –
8 | N#CCO/N=C(\C(=O)N[C@@H]1C(=O)N2C(C(=O)[O-])=C(/C=C/C[N+](CCO)(CCO)CCO)CS[C@H]12)c1nsc(N)n1 [Example 147] | 0.05 (≈ 0.0838 µM) | – | – | 0.2 (≈ 0.335 µM) | 0.2 (≈ 0.335 µM) | 0.05 (≈ 0.0838 µM) | – | 1.56 (≈ 2.61 µM) | 0.4 (≈ 0.67 µM) | –
9 | CC(O)C[N+](C)(C)C/C=C/C1=C(C(=O)[O-])N2C(=O)[C@@H](NC(=O)/C(=N\OCC#N)c3nsc(N)n3)[C@H]2SC1 (stereo partly drawn) [Example 149] | 0.05 (≈ 0.0908 µM) | – | – | 0.2 (≈ 0.363 µM) | 0.05 (≈ 0.0908 µM) | 0.05 (≈ 0.0908 µM) | – | 1.56 (≈ 2.83 µM) | 0.1 (≈ 0.182 µM) | –
10 | C[C@@H](O)[C@@H](C(N)=O)[N+](C)(C)C/C=C/C1=C(C(=O)[O-])N2C(=O)[C@@H](NC(=O)/C(=N\OCC#N)c3nsc(N)n3)[C@H]2SC1 [Example 153] | 0.1 (≈ 0.168 µM) | – | – | 0.4 (≈ 0.674 µM) | 0.1 (≈ 0.168 µM) | 0.1 (≈ 0.168 µM) | – | 1.56 (≈ 2.63 µM) | 0.2 (≈ 0.337 µM) | –
11 | C[N+]1(C/C=C/C2=C(C(=O)[O-])N3C(=O)[C@@H](NC(=O)/C(=N\OCC#N)c4nsc(N)n4)[C@H]3SC2)CCN(S(N)(=O)=O)CC1 [Example 156] | 0.1 (≈ 0.16 µM) | – | – | 0.4 (≈ 0.638 µM) | 0.1 (≈ 0.16 µM) | 0.1 (≈ 0.16 µM) | – | 0.8 (≈ 1.28 µM) | 0.1 (≈ 0.16 µM) | –
12 | N#CCO/N=C(\C(=O)N[C@@H]1C(=O)N2C(C(=O)[O-])=C(/C=C/C[N+]34CCN(CC3)CC4)CS[C@H]12)c1nsc(N)n1 [Example 157, 7β-[2-(5-Amino-1,2,4-thiadiazol-3-yl)-(Z)-2-cyanomethoxyiminoacetoamido]-3-[(E)-3-(1,4-diazabicyclo[2,2,2]octane-1-io)-1-propen-1-yl]-3-cephem-4-carboxylate] | 0.1 (≈ 0.179 µM) | – | – | 0.4 (≈ 0.715 µM) | 0.2 (≈ 0.357 µM) | 0.1 (≈ 0.179 µM) | – | 1.56 (≈ 2.79 µM) | 0.1 (≈ 0.179 µM) | –
13 | N#CCO/N=C(\C(=O)N[C@@H]1C(=O)N2C(C(=O)[O-])=C(/C=C/C[n+]3ccc(C(N)=O)cc3)CS[C@H]12)c1nsc(N)n1 [Example 158, 7β-[2-(5-Amino-1,2,4-thiadiazol-3-yl)-(Z)-2-cyanomethoxyiminoacetoamido]-3-[(E)-3-(4-carbamoylpyridinio)-1-propen-1-yl]-3-cephem-4-carboxylate] | ≤ 0.025 | – | – | 0.2 (≈ 0.351 µM) | 0.1 (≈ 0.176 µM) | 0.1 (≈ 0.176 µM) | – | 1.56 (≈ 2.74 µM) | ≤ 0.025 | –
14 | C[N+](C)(C/C=C/C1=C(C(=O)[O-])N2C(=O)[C@@H](NC(=O)/C(=N\OCC#N)c3nsc(N)n3)[C@H]2SC1)Cc1nnco1 [Example 159] | 0.05 (≈ 0.087 µM) | – | – | 0.4 (≈ 0.696 µM) | 0.1 (≈ 0.174 µM) | 0.1 (≈ 0.174 µM) | – | 1.56 (≈ 2.71 µM) | 0.05 (≈ 0.087 µM) | –
15 | N#CCO/N=C(\C(=O)N[C@@H]1C(=O)N2C(C(=O)[O-])=C(/C=C/C[N+]34CCCN3CCC4)CS[C@H]12)c1nsc(N)n1 [Example 161, 7β-[2-(5-Amino-1,2,4-thiadiazol-3-yl)-(Z)-2-cyanomethoxyiminoacetoamido]-3-[(E)-3-(1,5-diazabicyclo[3.3.0]octane-1-io)-1-propen-1-yl]-3-cephem-4-carboxylate] | 0.05 (≈ 0.0893 µM) | – | – | 0.2 (≈ 0.357 µM) | 0.2 (≈ 0.357 µM) | 0.1 (≈ 0.179 µM) | – | 1.56 (≈ 2.79 µM) | 0.05 (≈ 0.0893 µM) | –
